ChEMBL document CHEMBL2321853, “Novel acylethanolamide derivatives that modulate body weight through enhancement of hypothalamic pro-opiomelanocortin (POMC) and/or decreased neuropeptide Y (NPY)” (J Med Chem, 2013)
Calls of active or inactive are those of the source. No cut-off for these calls is given here.

Legend:
[1] = tested on: Mus musculus; test: Antiobesity activity in C57BL/6 mouse assessed as weight loss at 5 mg/kg, ip administered on day 1, 4, 5, 7, 17, 15, 19 measured on day 5 relative to control; assay type: functional; settings: route intraperitoneal
[2] = tested on: Mus musculus; test: Antiobesity activity in C57BL/6 mouse assessed as weight loss at 5 mg/kg, ip administered on day 1, 4, 5, 7, 17, 15, 19 measured on day 19 relative to control; assay type: functional; settings: route intraperitoneal
[3] = tested on: Mus musculus; test: Antiobesity activity in C57BL/6 mouse assessed as weight loss at 5 mg/kg, ip administered on day 1, 4, 5, 7, 17, 15, 19 measured on day 15 relative to control; assay type: functional; settings: route intraperitoneal
[4] = tested on: Mus musculus; test: Antiobesity activity in C57BL/6 mouse assessed as change in glucose level in blood at 5 mg/kg, ip administered on day 1, 4, 5, 7, 17, 15, 19 measured on day 5 relative to control; assay type: functional; settings: route intraperitoneal
[5] = tested on: Mus musculus; test: Antiobesity activity in Sabra mouse assessed as change in body weight at 1 mg/kg, ip administered on day 8, 12 and 43 measured on day 50 relative to control; assay type: functional; settings: route intraperitoneal
[6] = tested on: Mus musculus; test: Antiobesity activity in Sabra mouse assessed as change in body weight at 1 mg/kg, ip administered on day 8, 12 and 43 measured on day 54 relative to control; assay type: functional; settings: route intraperitoneal
[7] = tested on: Mus musculus; test: Antiobesity activity in C57BL/6 mouse assessed as change in triglyceride level at 5 mg/kg, ip measured on day 36 (reference value: 0.92 mg/dL); assay type: functional; settings: route intraperitoneal
[8] = tested on: Mus musculus; test: Antiobesity activity in Sabra mouse assessed as change in body weight at 1 mg/kg, ip administered on day 8, 12 and 43 measured on day 8 relative to control; assay type: functional; settings: route intraperitoneal
[9] = tested on: Mus musculus; test: Antiobesity activity in C57BL/6 mouse assessed as change in glucose level in blood at 5 mg/kg, ip administered on day 1, 4, 5, 7, 17, 15, 19 measured on day 9 relative to control; assay type: functional; settings: route intraperitoneal
[10] = tested on: Mus musculus; test: Antiobesity activity in C57BL/6 mouse assessed as weight loss at 5 mg/kg, ip administered on day 1, 4, 5, 7, 17, 15, 19 measured on day 12 relative to control; assay type: functional; settings: route intraperitoneal
[11] = tested on: Mus musculus; test: Antiobesity activity in Sabra mouse assessed as change in body weight at 1 mg/kg, ip administered on day 8, 12 and 43 measured on day 29 relative to control; assay type: functional; settings: route intraperitoneal
[12] = tested on: Mus musculus; test: Antiobesity activity in Sabra mouse assessed as change in body weight at 1 mg/kg, ip administered on day 8, 12 and 43 measured on day 36 relative to control; assay type: functional; settings: route intraperitoneal
[13] = tested on: Mus musculus; test: Antiobesity activity in Sabra mouse assessed as change in body weight at 1 mg/kg, ip administered on day 8, 12 and 43 measured on day 71 relative to control; assay type: functional; settings: route intraperitoneal
[14] = tested on: Mus musculus; test: Antiobesity activity in C57BL/6 mouse assessed as weight loss at 5 mg/kg, ip administered on day 1, 4, 5, 7, 17, 15, 19 measured on day 17 relative to control; assay type: functional; settings: route intraperitoneal
[15] = tested on: Mus musculus; test: Antiobesity activity in C57BL/6 mouse assessed as weight loss at 5 mg/kg, ip administered on day 1, 4, 5, 7, 17, 15, 19 measured on day 11 relative to control; assay type: functional; settings: route intraperitoneal
[16] = tested on: Mus musculus; test: Antiobesity activity in C57BL/6 mouse assessed as change in glucose level in blood at 5 mg/kg, ip administered on day 1, 4, 5, 7, 17, 15, 19 measured on day 19 relative to control; assay type: functional; settings: route intraperitoneal
[17] = tested on: Mus musculus; test: Antiobesity activity in C57BL/6 mouse assessed as change in cholesterol level at 5 mg/kg, ip measured on day 36 (reference value: 86.58 mg/dL); assay type: functional; settings: route intraperitoneal
[18] = tested on: Mus musculus; test: Antiobesity activity in C57BL/6 mouse assessed as change in AST level at 5 mg/kg, ip measured on day 36 (reference value: 146.7 IU/L); assay type: functional; settings: route intraperitoneal
[19] = tested on: Mus musculus; test: Antiobesity activity in C57BL/6 mouse assessed as change in glucose level in blood at 5 mg/kg, ip administered on day 1, 4, 5, 7, 17, 15, 19 measured on day 15 relative to control; assay type: functional; settings: route intraperitoneal
[20] = tested on: Mus musculus; test: Antiobesity activity in C57BL/6 mouse assessed as change in glucose level in blood at 5 mg/kg, ip administered on day 1, 4, 5, 7, 17, 15, 19 measured on day 3 relative to control; assay type: functional; settings: route intraperitoneal
[21] = tested on: Mus musculus; test: Antiobesity activity in Sabra mouse assessed as change in body weight at 1 mg/kg, ip administered on day 8, 12 and 43 measured on day 15 relative to control; assay type: functional; settings: route intraperitoneal
[22] = tested on: Mus musculus; test: Antiobesity activity in C57BL/6 mouse assessed as weight loss at 5 mg/kg, ip administered on day 1, 4, 5, 7, 17, 15, 19 measured on day 9 relative to control; assay type: functional; settings: route intraperitoneal
[23] = tested on: Mus musculus; test: Antiobesity activity in C57BL/6 mouse assessed as weight loss at 5 mg/kg, ip administered on day 1, 4, 5, 7, 17, 15, 19 measured on day 3 relative to control; assay type: functional; settings: route intraperitoneal
[24] = tested on: Mus musculus; test: Enhancement of cognitive function in Sabra mouse at 1 mg/kg, ip administered on day 8, 12 and 43 by eight-arm maze test; assay type: functional, organism-based; set-up: dose 1 mg/kg
[25] = tested on: Mus musculus; test: Increase in ALT levels in Sabra mouse at 1 mg/kg, ip administered on day 8, 12 and 43 measured on day 74; assay type: ADME, organism-based; set-up: dose 1 mg/kg, route intraperitoneal; settings: in vivo
[26] = tested on: Mus musculus; test: Antiobesity activity in Sabra mouse assessed as change in body weight at 1 mg/kg, ip administered on day 8, 12 and 43 measured on day 5 relative to control; assay type: functional; settings: route intraperitoneal
[27] = tested on: Mus musculus; test: Antiobesity activity in Sabra mouse assessed as change in body weight at 1 mg/kg, ip administered on day 8, 12 and 43 measured on day 12 relative to control; assay type: functional; settings: route intraperitoneal
[28] = tested on: Mus musculus; test: Effect on neurological score in Sabra mouse assessed as change in neurological score at 1 mg/kg, ip administered on day 8, 12 and 43 by NSS method; assay type: functional, organism-based; set-up: dose 1 mg/kg
[29] = tested on: Mus musculus; test: Antiobesity activity in Sabra mouse assessed as change in body weight at 1 mg/kg, ip administered on day 8, 12 and 43 measured on day 43 relative to control; assay type: functional; settings: route intraperitoneal
[30] = tested on: Mus musculus; test: Antiobesity activity in C57BL/6 mouse assessed as change in glucose level in blood at 5 mg/kg, ip administered on day 1, 4, 5, 7, 17, 15, 19 measured on day 11 relative to control; assay type: functional; settings: route intraperitoneal
[31] = tested on: Mus musculus; test: Antiobesity activity in C57BL/6 mouse assessed as weight loss at 5 mg/kg, ip administered on day 1, 4, 5, 7, 17, 15, 19 measured on day 8 relative to control; assay type: functional; settings: route intraperitoneal
[32] = tested on: Mus musculus; test: Antiobesity activity in Sabra mouse assessed as change in body weight at 1 mg/kg, ip administered on day 8, 12 and 43 measured on day 33 relative to control; assay type: functional; settings: route intraperitoneal
[33] = tested on: Mus musculus; test: Antiobesity activity in Sabra mouse assessed as reduction in body weight at 1 mg/kg, ip administered on day 0, 10, 11, 12, 24, 29 measured on day 12 relative to control; assay type: functional; set-up: scale not given: the % may be the effect or the level left; settings: route intraperitoneal
[34] = target: T1, Glucose-dependent insulinotropic receptor (Homo sapiens, UniProt Q8TDV5); test: Agonist activity at recombinant GPR119 receptor (unknown origin)
T1 sequence (Q8TDV5 whole entry): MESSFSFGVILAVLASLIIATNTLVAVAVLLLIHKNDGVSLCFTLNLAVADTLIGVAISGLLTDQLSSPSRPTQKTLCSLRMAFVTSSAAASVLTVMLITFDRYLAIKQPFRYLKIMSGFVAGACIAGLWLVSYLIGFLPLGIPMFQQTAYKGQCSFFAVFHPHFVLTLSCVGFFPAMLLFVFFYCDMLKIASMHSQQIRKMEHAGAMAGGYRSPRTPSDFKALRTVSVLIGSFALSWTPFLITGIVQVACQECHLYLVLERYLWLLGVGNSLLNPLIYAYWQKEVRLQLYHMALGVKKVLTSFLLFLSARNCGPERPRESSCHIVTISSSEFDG

[35] = tested on: Mus musculus; test: Antiobesity activity in Sabra mouse assessed as reduction in body weight at 1 mg/kg, ip administered on day 0, 10, 11, 12, 24, 29 measured on day 19 relative to control; assay type: functional; set-up: scale not given: the % may be the effect or the level left; settings: route intraperitoneal
[36] = tested on: Mus musculus; test: Antiobesity activity in Sabra mouse assessed as reduction in body weight at 1 mg/kg, ip administered on day 0, 10, 11, 12, 24, 29 measured on day 24 relative to control; assay type: functional; set-up: scale not given: the % may be the effect or the level left; settings: route intraperitoneal
[37] = tested on: Mus musculus; test: Antiobesity activity in Sabra mouse assessed as reduction in body weight at 1 mg/kg, ip administered on day 0, 10, 11, 12, 24, 29 measured on day 33 relative to control; assay type: functional; set-up: scale not given: the % may be the effect or the level left; settings: route intraperitoneal
[38] = tested on: Mus musculus; test: Antiobesity activity in Sabra mouse assessed as reduction in body weight at 1 mg/kg, ip administered on day 0, 10, 11, 12, 24, 29 measured on day 36 relative to control; assay type: functional; set-up: scale not given: the % may be the effect or the level left; settings: route intraperitoneal
[39] = target: Transient receptor potential cation channel subfamily V member 1 (Homo sapiens, UniProt Q8NER1); test: Agonist activity at TRPV1 receptor (unknown origin)
[40] = tested on: Mus musculus; test: Antiobesity activity in Sabra mouse assessed as reduction in body weight at 1 mg/kg, ip administered on day 0, 10, 11, 12, 24, 29 measured on day 39 relative to control; assay type: functional; set-up: scale not given: the % may be the effect or the level left; settings: route intraperitoneal
[41] = tested on: Mus musculus; test: Antiobesity activity in Sabra mouse assessed as reduction in body weight at 1 mg/kg, ip administered on day 0, 10, 11, 12, 24, 29 measured on day 29 relative to control; assay type: functional; set-up: scale not given: the % may be the effect or the level left; settings: route intraperitoneal
[42] = tested on: Mus musculus; test: Antiobesity activity in Sabra mouse assessed as reduction in body weight at 1 mg/kg, ip administered on day 0, 10, 11, 12, 24, 29 measured on day 26 relative to control; assay type: functional; set-up: scale not given: the % may be the effect or the level left; settings: route intraperitoneal
[43] = tested on: Mus musculus; test: Antiobesity activity in Sabra mouse assessed as reduction in body weight at 1 mg/kg, ip administered on day 0, 10, 11, 12, 24, 29 measured on day 22 relative to control; assay type: functional; set-up: scale not given: the % may be the effect or the level left; settings: route intraperitoneal

Chain of Transient receptor potential cation channel subfamily V member 1 (Q8NER1 whole entry): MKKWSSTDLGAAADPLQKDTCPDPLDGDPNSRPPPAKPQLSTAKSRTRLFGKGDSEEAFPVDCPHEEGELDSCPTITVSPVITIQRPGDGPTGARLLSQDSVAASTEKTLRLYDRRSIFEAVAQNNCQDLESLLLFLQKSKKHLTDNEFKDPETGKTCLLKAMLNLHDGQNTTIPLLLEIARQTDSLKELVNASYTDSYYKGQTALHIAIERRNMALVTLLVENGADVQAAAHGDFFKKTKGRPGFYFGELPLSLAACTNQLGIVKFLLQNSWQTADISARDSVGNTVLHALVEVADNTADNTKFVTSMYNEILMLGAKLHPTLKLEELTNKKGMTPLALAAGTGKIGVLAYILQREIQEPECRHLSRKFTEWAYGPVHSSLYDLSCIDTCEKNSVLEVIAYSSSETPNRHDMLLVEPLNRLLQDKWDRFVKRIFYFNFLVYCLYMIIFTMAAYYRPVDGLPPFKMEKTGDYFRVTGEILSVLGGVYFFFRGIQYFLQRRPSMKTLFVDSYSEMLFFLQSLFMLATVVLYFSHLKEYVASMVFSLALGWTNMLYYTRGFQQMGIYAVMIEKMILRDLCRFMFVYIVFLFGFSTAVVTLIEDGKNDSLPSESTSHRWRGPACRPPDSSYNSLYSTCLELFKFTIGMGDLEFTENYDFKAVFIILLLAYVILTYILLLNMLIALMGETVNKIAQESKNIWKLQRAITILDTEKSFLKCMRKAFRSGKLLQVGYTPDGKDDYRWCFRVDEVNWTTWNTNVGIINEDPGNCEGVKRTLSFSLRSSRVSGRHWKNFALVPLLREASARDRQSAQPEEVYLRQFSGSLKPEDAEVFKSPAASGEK

Cc1c(C(=O)NN2CCCCC2)nn(-c2ccc(Cl)cc2Cl)c1-c1ccc(Cl)cc1 [RIMONABANT]
Activity [1]: -3.2% | Activity [2]: -4.5% | Activity [3]: -4.5% | Activity [4]: -11% | Activity [5]: -2.4% | Activity [6]: -3.5% | Activity [7]: 1.286 mg/dL | Activity [8]: 3.2% | Activity [9]: -16.2% | Activity [10]: -4.5% | Activity [11]: 1.5% | Activity [12]: -2.2% | Activity [13]: -0.9% | Activity [14]: -1.9% | Activity [15]: -3.1% | Activity [16]: 19.8% | Activity [17]: 94.16 mg/dL | Activity [18]: 125.3 IU/L | Activity [19]: -15.5% | Activity [20]: 0.86% | Activity [21]: 1.6% | Activity [22]: -4.6% | Activity [23]: -0.6% | Activity [24]: inactive | Activity [25]: Active | Activity [26]: 0.3% | Activity [27]: 0.9% | Activity [28]: inactive | Activity [29]: -3.1% | Activity [30]: -20.7% | Activity [31]: -3.5% | Activity [32]: 0.8%

CCCCCCCC/C=C\CCCCCCCC(=O)NCCO [OLEOYLETHANOLAMIDE]
Activity [33]: -0.23% | EC50 [34]: 3200 nM | Activity [35]: -1.17% | Activity [36]: -0.18% | Activity [37]: -0.15% | Activity [38]: -2.57% | EC50 [39]: 40 nM | Activity [40]: -3.42% | Activity [41]: -0.2% | Activity [42]: 1.43% | Activity [43]: -1.17%
